Data reported in patent publication US12600709B2, “Nonpeptide somatostatin type 5 receptor agonists and uses thereof” (Crinetics Pharmaceuticals, Inc., priority 2019, dated 2026).
Where two headings read alike, the source gives them in different places.

Key:
[1] = target: T1, human somatostatin receptor subtype 5 (Homo sapiens, UniProt P35346); assay: cAMP assay for SST5R (inhibition of cAMP in CHO-K1 cells); format: cell-based; settings: for EC50: inhibition of cAMP via human SST5 receptor, read-out: SST5 potency
T1 construct: expressed in transfected cells
Outline: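 CHO-K1 cells stably expressing human SSTR5 were treated 20 min at 37 °C with compounds plus 1.6 μM NKH477 in HBSS, 0.5 mM HEPES pH 7.4, 0.1% BSA, 0.2 mM IBMX. Lysate cAMP measured by HTRF against a standard curve; EC50 from cAMP-versus-concentration plots.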

[2] = target: T2, human somatostatin receptor subtype 2 (Homo sapiens, UniProt P30874); assay: cAMP assay for SST2R (inhibition of cAMP in CHO-K1 cells); format: cell-based; settings: Table B; inhibition of cAMP via human SST2 receptor; read-out: SST2 potency
T2 construct: expressed in transfected cells
Outline: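 CHO-K1 cells stably expressing human SSTR2, plated 4 days prior, treated 20 min at 37° C with 1.6 μM NKH477 plus compound dilutions in HBSS/HEPES pH 7.4/0.1% BSA/0.2 mM IBMX. Lysate cAMP measured by HTRF against standard curve; EC50 from concentration-response.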

[3] = Table B, class symbols, SST5 receptor over SST2 receptor
[4] = Table B, numeric values for comparison compounds

T1 sequence (P35346 whole entry): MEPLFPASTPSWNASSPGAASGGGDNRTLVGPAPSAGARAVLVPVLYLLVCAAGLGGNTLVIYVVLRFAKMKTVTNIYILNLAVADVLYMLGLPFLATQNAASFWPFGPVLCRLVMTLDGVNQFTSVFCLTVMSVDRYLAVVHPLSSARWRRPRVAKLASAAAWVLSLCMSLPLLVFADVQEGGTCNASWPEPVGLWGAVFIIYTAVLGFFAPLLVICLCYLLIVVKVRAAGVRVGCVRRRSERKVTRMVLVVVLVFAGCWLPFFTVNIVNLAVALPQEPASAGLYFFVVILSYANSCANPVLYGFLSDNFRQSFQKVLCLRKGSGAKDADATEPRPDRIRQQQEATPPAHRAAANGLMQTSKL
T2 sequence (P30874 whole entry): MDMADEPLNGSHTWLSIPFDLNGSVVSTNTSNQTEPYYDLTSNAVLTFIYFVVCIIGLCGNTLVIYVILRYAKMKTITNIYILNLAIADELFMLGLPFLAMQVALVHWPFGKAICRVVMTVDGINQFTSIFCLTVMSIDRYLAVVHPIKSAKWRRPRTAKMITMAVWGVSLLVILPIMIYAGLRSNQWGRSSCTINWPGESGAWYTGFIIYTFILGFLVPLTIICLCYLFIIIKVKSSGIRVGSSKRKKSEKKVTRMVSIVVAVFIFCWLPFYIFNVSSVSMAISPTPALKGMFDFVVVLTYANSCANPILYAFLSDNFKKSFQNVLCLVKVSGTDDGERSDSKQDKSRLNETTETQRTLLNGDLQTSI

| SMILES | EC50 ([1]; Table A) [nM] | Fold selectivity for SST5 vs SST2 [1, 3] | EC50 ([1]; Table B) [nM] | EC50 [2] [nM] | Fold selectivity for SST5 vs SST2 [1, 4] |
| --- | --- | --- | --- | --- | --- |
| C[C@]1(N)CCN(c2c(C(=O)NC34CC(C3)C4)cncc2-c2cc(F)cc(F)c2)C1 [1-21, 4-[(3S)-3-amino-3-methylpyrrolidin-1-yl]-N-{bicyclo[1.1.1]pentan-1-yl}-5-(3,5-difluorophenyl)pyridine-3-carboxamide] | < 10 | ++ (++=100 to 499) | < 10 | 10 to 100 |  |
| COc1ncc(C(=O)N[C@@H](C)c2ccccn2)c(N2CC[C@](C)(N)C2)c1-c1cc(F)cc(Cl)c1 [1-240, 4-[(3S)-3-amino-3-methylpyrrolidin-1-yl]-5-(3-chloro-5-fluorophenyl)-6-methoxy-N-[(1S)-1-(pyridin-2-yl)ethyl]pyridine-3-carboxamide] | < 10 | +++ (+++=>500) | < 10 | 100 to 1000 |  |
| Cc1cc(F)cc(-c2cncc(C(=O)NC3CCc4ccccc43)c2N2CC[C@](C)(N)C2)c1 (stereo partly drawn) [1-17, 4-[(3S)-3-amino-3-methylpyrrolidin-1-yl]-N-(2,3-dihydro-1H-inden-1-yl)-5-(3-fluoro-5-methylphenyl)pyridine-3-carboxamide] | < 10 | ++ (++=100 to 499) | < 10 | 100 to 1000 |  |
| Cc1cc(C)cc(-c2cncc(NC(=O)c3ccc(F)c(Cl)c3)c2N2CCC(CN)C2)c1 (centres unmarked) [N-(4-(3-(aminomethyl)pyrrolidin-1-yl)-5-(3,5-dimethylphenyl)pyridin-3-yl)-3-chloro-4-fluorobenzamide, reference compound] |  |  | > 1000 | < 10 | 0.0055 |
| COc1cc(-c2c(C#N)ncc(C(=O)N[C@@H](C)C(F)(F)F)c2N2CC[C@](C)(N)C2)ccn1 [1-170, 4-[(3S)-3-amino-3-methylpyrrolidin-1-yl]-2-cyano-2′-methoxy-N-[(2S)-1,1,1-trifluoropropan-2-yl]-[3,4′-bipyridine]-5-carboxamide] | < 10 | +++ (+++=>500) | < 10 | 100 to 1000 |  |
| C[C@H](NC(=O)c1cnc(C#N)c(-c2ccnc(C(F)(F)F)c2)c1N1CC[C@](C)(N)C1)C(F)(F)F [1-169, 4-[(3S)-3-amino-3-methylpyrrolidin-1-yl]-2-cyano-2′-(trifluoromethyl)-N-[(2S)-1,1,1-trifluoropropan-2-yl]-[3,4′-bipyridine]-5-carboxamide] | < 10 | +++ (+++=>500) | < 10 | 100 to 1000 |  |
| C[C@]1(N)CCN(c2c(C(=O)NC(C3CC3)C3CC3)cncc2-c2cc(F)cc(F)c2)C1 [1-51, 4-[(3S)-3-amino-3-methylpyrrolidin-1-yl]-N-(dicyclopropylmethyl)-5-(3,5-difluorophenyl)pyridine-3-carboxamide] | < 10 | +++ (+++=>500) | < 10 | 100 to 1000 |  |
| C[C@]1(N)CCN(c2c(C(=O)NC3CCCCC3)cncc2-c2cc(F)cc(F)c2)C1 [1-112, 4-[(3S)-3-amino-3-methylpyrrolidin-1-yl]-N-cyclohexyl-5-(3,5-difluorophenyl)pyridine-3-carboxamide] | < 10 | +++ (+++=>500) | < 10 | 100 to 1000 |  |
| COc1cc(C#N)cc(-c2cncc(C(=O)N[C@@H](C)C3CC3)c2N2CC[C@](C)(N)C2)c1 [1-96, 4-[(3S)-3-amino-3-methylpyrrolidin-1-yl]-5-(3-cyano-5-methoxyphenyl)-N-[(1S)-1-cyclopropylethyl]pyridine-3-carboxamide] | < 10 | ++ (++=100 to 499) | < 10 | 100 to 1000 |  |
| C[C@H](NC(=O)c1cnc(C#N)c(-c2cc(F)cc(F)c2)c1N1CC[C@H](N)C1)C1CC1 [1-69, 4-[(3S)-3-aminopyrrolidin-1-yl]-6-cyano-N-[(1S)-1-cyclopropylethyl]-5-(3,5-difluorophenyl)pyridine-3-carboxamide] | < 10 | +++ (+++=>500) | < 10 | 100 to 1000 |  |
| CCC(C)CNC(=O)c1cncc(-c2cc(F)cc(F)c2)c1N1CC[C@](C)(N)C1 (stereo partly drawn) [1-57, 4-[(3S)-3-amino-3-methylpyrrolidin-1-yl]-5-(3,5-difluorophenyl)-N-(2-methylbutyl)pyridine-3-carboxamide] | < 10 | ++ (++=100 to 499) | < 10 | 100 to 1000 |  |
| C[C@H](NC(=O)c1cnc(OCCC(=O)O)c(-c2cc(F)cc(F)c2)c1N1CC[C@](C)(N)C1)C1CC1 [1-264, 3-({4-[(3S)-3-amino-3-methylpyrrolidin-1-yl]-5-{[(1S)-1-cyclopropylethyl]carbamoyl}-3-(3,5-difluorophenyl)pyridin-2-yl}oxy)propanoic acid] | < 10 | +++ (+++=>500) | < 10 | > 1000 |  |
| COc1ncc(C(=O)N[C@@H](C)C2CC2)c(N2CC[C@](C)(N)C2)c1-c1cccc(OC(F)F)c1 [1-165, 4-[(3S)-3-amino-3-methylpyrrolidin-1-yl]-N-[(1S)-1-cyclopropylethyl]-5-[3-(difluoromethoxy)phenyl]-6-methoxypyridine-3-carboxamide] | < 10 | +++ (+++=>500) | < 10 | 100 to 1000 |  |
| CC(NC(=O)c1cnc(C#N)c(-c2cc(F)cc(F)c2)c1N1CC[C@](C)(N)C1)c1ncccn1 (stereo partly drawn) [1-126, 4-[(3S)-3-amino-3-methylpyrrolidin-1-yl]-6-cyano-5-(3,5-difluorophenyl)-N-[1-(pyrimidin-2-yl)ethyl]pyridine-3-carboxamide] | < 10 | +++ (+++=>500) | < 10 | > 1000 |  |
| COc1ncc(C(=O)NC2CCC(F)(F)CC2)c(N2CC[C@H](N)C2)c1-c1cc(F)cc(Cl)c1 [1-284, 4-[(3S)-3-aminopyrrolidin-1-yl]-5-(3-chloro-5-fluorophenyl)-N-(4,4-difluorocyclohexyl)-6-methoxypyridine-3-carboxamide] | < 10 | +++ (+++=>500) | < 10 | 100 to 1000 |  |
| CCOC(=O)COc1ncc(C(=O)NC2CCC(F)(F)CC2)c(N2CC[C@H](N)C2)c1-c1cc(F)cc(F)c1 [1-200, ethyl 2-({4-[(3S)-3-aminopyrrolidin-1-yl]-5-[(4,4-difluorocyclohexyl)carbamoyl]-3-(3,5-difluorophenyl)pyridin-2-yl}oxy)acetate] | < 10 | +++ (+++=>500) | < 10 | 100 to 1000 |  |
| C[C@H](NC(=O)c1cnc(C(F)(F)F)c(-c2cc(Cl)cc(Cl)c2)c1N1CC[C@H](N)C1)C1CC1 [1-215, 4-[(3S)-3-aminopyrrolidin-1-yl]-N-[(1S)-1-cyclopropylethyl]-5-(3,5-dichlorophenyl)-6-(trifluoromethyl)pyridine-3-carboxamide] | < 10 | +++ (+++=>500) | < 10 | 100 to 1000 |  |
| Cc1ncc(C(=O)N[C@@H](C)C(F)(F)F)c(N2CC[C@H](N)C2)c1-c1cc(F)cc(F)c1 [1-230, 4-[(3S)-3-aminopyrrolidin-1-yl]-5-(3,5-difluorophenyl)-6-methyl-N-[(2S)-1,1,1-trifluoropropan-2-yl]pyridine-3-carboxamide] | < 10 | ++ (++=100 to 499) | < 10 | 100 to 1000 |  |
| Cc1ncc(C(=O)N[C@@H](C)C(F)(F)F)c(N2CC[C@](C)(N)C2)c1-c1ccc(F)c(F)c1 [1-279, 4-[(3S)-3-amino-3-methylpyrrolidin-1-yl]-5-(3,4-difluorophenyl)-6-methyl-N-[(2S)-1,1,1-trifluoropropan-2-yl]pyridine-3-carboxamide] | < 10 | +++ (+++=>500) | < 10 | 100 to 1000 |  |
| C[C@H](NC(=O)c1cnc(OCCCC(=O)O)c(-c2cc(F)cc(F)c2)c1N1CC[C@](C)(N)C1)C1CC1 [1-265, 4-({4-[(3S)-3-amino-3-methylpyrrolidin-1-yl]-5-{[(1S)-1-cyclopropylethyl]carbamoyl}-3-(3,5-difluorophenyl)pyridin-2-yl}oxy)butanoic acid] | < 10 | +++ (+++=>500) | < 10 | > 1000 |  |
| COc1ncc(C(=O)NC23CC(F)(C2)C3)c(N2CC[C@H](N)C2)c1-c1cc(F)cc(Cl)c1 [1-286, 4-[(3S)-3-aminopyrrolidin-1-yl]-5-(3-chloro-5-fluorophenyl)-N-{3-fluorobicyclo[1.1.1]pentan-1-yl}-6-methoxypyridine-3-carboxamide] | < 10 | +++ (+++=>500) | < 10 | 100 to 1000 |  |
| Cc1cc(C)cc(NC(=O)c2cncc(-c3cc(C)cc(C)c3)c2N2CCC(CN)C2)c1 (centres unmarked) [4-(3-(aminomethyl)pyrrolidin-1-yl)-N,5-bis(3,5-dimethylphenyl)nicotinamide, reference compound] |  |  | < 10 | < 10 | 0.084 |
